These results are taken from paper PMC6162207, “Identification and pharmaceutical evaluation of novel frog skin-derived serine proteinase inhibitor peptide–PE-BBI (Pelophylax esculentus Bowman-Birk inhibitor) for the potential treatment of cancer” (Scientific Reports, 2018).

Test [1] has as its system Candida albicans (NCYC 1467). The experiment in a line: Antimicrobial MIC assay, C. albicans. It counts as cell-based. Particulars: 1 to 512 μM, MHB, 18 h, 37 °C, 6 replicates, absorbance 550 nm; data not shown. How it is done:
(§1) Gram-negative bacteria Escherichia coli (NCTC 10418); Gram-positive bacteria Staphylococcus aureus (NCTC 10788) and pathogenic yeast Candida albicans (NCYC 1467) were used in minimum inhibitory concentration (MIC) assays to investigate the board antimicrobial activity ability of synthetic PE-BBI. Microorganisms involved in MIC assays were cultured in MHB for 16–18 h. Then sub-cultured for 2~4 h to allow the microorganism to enter the logarithmic growth phase. Subsequently, proper density of bacterial (1 × 10^6 colony forming units (cfu)/mL) and fungi (1 × 10^5 cfu/mL) were seeded into 96 well plate. Different concentration ranged from 1 to 512 μM of PE-BBI were added into each well (6 replicates per concentration). The absorbance value at 550 nm was detected using a Synergy HT plate reader (Biotech, Minneapolis, MN, USA) after 18 h incubation in 37 °C incubator[50].

Test [2] has as its system Staphylococcus aureus (NCTC 10788). The experiment in a line: Antimicrobial MIC assay, S. aureus. The conditions noted are these: 1 to 512 μM, MHB, 18 h, 37 °C, 6 replicates, absorbance 550 nm; data not shown. In kind it is cell-based. How it is done: as §1
Test [3] has as its system Escherichia coli (NCTC 10418). The test is described as follows: Antimicrobial MIC assay, E. coli. It counts as cell-based. The conditions noted are these: 1 to 512 μM, MHB, 18 h, 37 °C, 6 replicates, absorbance 550 nm; data not shown. How it is done: as §1
Test [4] deals with rat-tail artery smooth muscle. The arrangement: species or system rat (female Wistar). As to the method: Female Wistar rats (250–300 g) were applied in this study and sacrificed followed the principle of institutional animal experimentation ethics and UK animal research guidelines. All of the procedures involved in this study was approved by IACUC of Queen’s University Belfast. Rat-tail artery and bladder were isolated and located in pre-chilled Kreb’s solution equilibrated with 95% O2, 5% CO2[51]. Isolated muscle strips (2–10 mm) were vertically suspended in a 2 mL organ bath containing 37 °C Kreb’s solution. The Kreb’s solution was constant refreshing by constant flowing (2 mL/min) during the assay. Potassium chloride (KCL, 60 mM) was used to test for viability of muscle strips after 20 min equilibration. After the smooth muscle strip were prepared, the synthetic replicates of PE-BBI (10^−11 to 10^−5 M) was used to quantify the myogenic potency on rat-tail artery and bladder smooth muscle. Between each concentration, the smooth muscle strip was washed 5 mins and re-equilibration for another 5 min. Each data point was repeated on at least five independent muscle strips. The tension change was amplified and recorded by a PowerLab System (AD Instruments Pty Ltd.)[51].

Test [5] concerns the target T1, trypsin from bovine pancreas (Bos taurus, UniProt P00760).
T1 construct: purchased Sigma/Aldrich, Poole, Dorset, UK; host or cells: bovine pancreas
T1 sequence (P00760 24-246): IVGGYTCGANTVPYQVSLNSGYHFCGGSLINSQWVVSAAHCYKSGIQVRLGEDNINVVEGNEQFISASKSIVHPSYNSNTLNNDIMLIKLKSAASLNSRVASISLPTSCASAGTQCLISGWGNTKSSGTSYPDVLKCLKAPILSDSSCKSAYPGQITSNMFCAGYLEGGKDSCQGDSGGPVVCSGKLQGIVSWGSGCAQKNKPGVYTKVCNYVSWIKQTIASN
The test is described as follows: Trypsin inhibitory assay. In kind it is biochemical.

Positions of bridges follow the written chain, without caps; N, C: chain ends. Residues, ends and D or L forms follow the SMILES beside them.

A word on the EC50: it is the concentration at which the effect is half-maximal. The low end stands for greater potency, the high end for weaker potency. For orientation: Ki means the dissociation constant of the complex between target and ligand, obtained from inhibition or displacement. `CC[C@H](C)[C@@H]1NC(=O)[C@H](CO)NC(=O)[C@H](CCCCN)NC(=O)[C@H]([C@@H](C)O)NC(=O)[C@H](Cc2c[nH]c3ccccc23)NC(=O)[C@@H](NC(=O)CNC(=O)[C@H](CCCCN)NC(=O)[C@H](CC(C)C)NC(=O)[C@H](C)NC(=O)CN)CSSC[C@@H](C(=O)N[C@@H](CCCCN)C(N)=O)NC(=O)[C@@H]2CCCN2C(=O)[C@H](CCCCN)NC(=O)[C@@H]2CCCN2C(=O)[C@@H]2CCCN2C1=O` [PE-BBI] (H-GALKGCWTKSIPPKPCK-NH2; disulfide 6-16; N-terminus assumed): the “antimicrobial activity (MIC), C. albicans” value in test [1] was “didn’t show any obviously antibacterial activity even in the highest concentration (512 μM)”. Besides, the “antimicrobial activity (MIC), S. aureus” value in test [2] was “didn’t show any obviously antibacterial activity even in the highest concentration (512 μM)”. The “antimicrobial activity (MIC), E. coli” value in test [3] was “didn’t show any obviously antibacterial activity even in the highest concentration (512 μM)”. This compound also registered an EC50 in test [4] of 8.79 nM. The compound also displayed a Ki in test [5] of 310 ± 72 nM. The “mode of trypsin inhibition” value in test [5] (PE-BBI 0.1–100 µM) is reported as “competitive reversible trypsin inhibitory activity”.
